Data as given in patent publication US10888588B2, “Directed cardiomyocyte differentiation and ventricular specification of stem cells” (ICAHN SCHOOL OF MEDICINE AT MOUNT SINAI, priority 2013, dated 2021).

How the values were obtained:
[1] = tested on: Wnt/β-catenin pathway; assay: Directed differentiation to ventricular cardiomyocytes with Wnt inhibition; format: cell-based, human
Excerpt: (§1) As detailed in the following examples, cardiac differentiation was initiated by formation of embryoid bodies (EBs) in suspension culture from hESCs as exemplary stem cells, maintained in feeder-free, serum-free culture. […] In the first phase of the differentiation process (Stage 1; days 2-4.5), the cells were differentiated into primitive streak-mesendoderm and subsequently to cardiac mesoderm by the combinatorial activation of the BMP and Nodal signaling pathways. In the second phase (Stage 2; days 4.5-8) the inhibition of the Wnt/β-catenin pathway by the small molecule IWR-1^29 enhanced the differentiation of the cardiac progenitors to the ventricular cardiomyocyte lineage.
For directed cell differentiation, undifferentiated hPSCs were digested into smaller clusters using Dispase (STEMCELL Technologies; 1 mg/ml for 8 minutes at 37° C.) and seeded onto Matrigel™-coated plates at 3×10^4 cells/ml in mTeSR™ 1 medium for 4 days until there was about 80-90% confluence on D0. To initiate cardiac differentiation, hPSCs were digested into single cell suspensions using Accutase (Invitrogen) and cultured in mTeSR™ 1 medium with Matrigel™ (40 μg/ml) with BMP-4 (1 ng/ml, Invitrogen) and Rho kinase inhibitor (ROCK) Inhibitor (10 μM; R&D) under a hypoxic condition with 5% O2. […] Cardiac mesodermal cells developed into functional contracting clusters could be detected as early as day 8. […]

[2] = tested on: HES2-VCMs; settings: H2O2 100 μM, 30 minutes, 37° C.; ratio before stress 1.146
Protocol: Mitochondrial membrane potential in HES2-VCMs was measured with the potential-sensitive dye JC-1 (Invitrogen). LV-MLC2v-Tdtomato-T2A-Zeo transduced and Zeo-selected HES2-VCMs (30- to 50-day-old) were incubated at 37° C. with 0.5 μM JC-1 in serum free DMEM medium for 15 minutes. To simulate metabolic oxidative stress, hES2-VCMs were treated with hydrogen peroxide (H2O2; 100 μM) for 30 minutes at 37° C., after which JC-1 orange and green fluorescence intensities were measured for mitochondrial membrane potential with a LSM Carl Zeiss 510 Meta microscope.

[3] = tested on: hPSC; settings: cited from earlier work
[4] = tested on: hESC-VCMs; assay: Patch-clamp AP recording and confocal Ca2+ imaging of hESC-VCMs; format: cell-based, human
Protocol: The electrophysiological experiments disclosed in the Examples were performed using the whole-cell patch-clamp technique as previously described.^65-67 To profile chamber-specific subtypes of the hPSC-CMs, action potentials of the myocytes were randomly probed at 37° C. with the patch-clamp technique using an EPC-10 amplifier and Pulse software (Heka Elektronik, Germany), with the current-clamp mode (0.1-0.5 nA for 1-5 ms) under the whole-cell configuration applied. The hPSC-CMs were categorized into nodal-, atrial- or ventricular-like, as previously described.^62,65,66 Voltage-clamp recordings of ionic currents were performed using an automated parallel patch-clamp system (PatchXpress 7000A, Molecular Devices) using standard electrophysiological and pharmacological protocols for isolating the ionic component of interest.
Intracellular Ca^2+ ([Ca^2+]i) transients were imaged by a spinning disc laser confocal microscope (PerkinElmer) on hPSC-CMs loaded with 1.5 μM X-Rhod-1 (Invitrogen) as previously described^66. After dye loading, experiments were performed at 37° C. in Tyrode's solution containing: 140 mM NaCl, 5 mM KCl, 1 mM MgCl2, 1.25 mM CaCl2, 10 mM HEPES and 10 mM D-glucose at pH 7.4. […] The amplitudes of E[Ca^2+]i are presented as the background corrected pseudo ratio (ΔF/F)=(F−Fbase)/(Fbase−B) where Fbase and F is the measured fluorescence intensity before and after stimulation, respectively, and B is the average background signal from areas adjacent to the targeted cell. The transients rise (Vupstroke) and the transients decay (Vdecay) were subsequently calculated and analyzed.
Initially, electrophysiological profiles were obtained and analyzed from patch-clamp recordings and Ca^2+-imaging performed on 30- to 50-day-old single cells isolated from cardiogenic EBs.

[5] = tested on: hESCs; assay: Embryoid body formation from dissociated hESCs; format: cell-based, human; settings: EB formation in suspension culture
Excerpt: as §1

**Q.** With `O=C(Nc1cccc2cccnc12)c1ccc(N2C(=O)[C@@H]3[C@H](C2=O)[C@@H]2C=C[C@H]3C2)cc1` [IWR-1] as the compound, how does the “differentiation of cardiac progenitors to the ventricular cardiomyocyte lineage” value ([1]; Stage 2, days 4.5-8) read?
**A.** The value was “enhanced”.

**Q.** What about the “heterogeneity of the hESC-derived cardiomyocytes” value ([1]; timely inhibition of Wnt/β-catenin pathway) of the same compound?
**A.** The value was “reduced”.

**Q.** Which “JC-1 orange/green intensity ratio” value [2] does the source give for `OO` [H2O2, hydrogen peroxide] here?
**A.** Its value is 0.410.

**Q.** Which “hPSC-CM per hPSC” value ([3]; about 4.2×10^6 hPSC-CM from about 6×10^6 seeded per well) does the source give for `COc1ccc(CCC(=O)Nc2nc3ccc(Cl)cc3s2)cc1OC` [KY02111] here?
**A.** The value was 0.7 hPSC-CM per hPSC.

**Q.** What about the “yield of CM from hPSC differentiation” value ([3]; serum- and xeno-free, four hiPSC lines, by inhibiting WNT signaling) of the same compound?
**A.** Its value is “up to 98%”.

**Q.** What does the source list for `CC(C)NCC(O)c1ccc(O)c(O)c1` (stereo not shown) [isoproterenol]?
**A.** chronotropic response (spontaneous AP and Ca2+ transient firings) ([4]; 30- to 50-day-old single cells, β-adrenergic stimulation): positive chronotropic response; Ca2+ transient amplitude (ionotropic response) ([4]; β-adrenergic stimulation, p>0.05): remained unchanged

**Q.** For `Cn1c(=O)c2c(ncn2C)n(C)c1=O` [caffeine], which “caffeine-induced Ca2+ flux (functional sarcoplasmic reticulum)” value [4] is on record?
**A.** Its value is “observed”.

**Q.** What does the source list for `Cc1ccc2c(c1)C(=O)C1(O)CCN(c3ccccc3)C1=N2` (stereo not shown) [blebbistatin]?
**A.** EB formation efficiency [5]: significantly increased; dissociation-induced apoptosis of hESCs [5]: inhibited
